Measurements: publication PMC2869248 (Psychopharmacology, 2010)

Assays:
[1] = target: T1, cloned human KOR (hKOR), kappa-opioid receptor (Homo sapiens, UniProt P41145); experiment: biochemical
[2] = target: T1, cloned human KOR (hKOR), kappa-opioid receptor

T1 sequence (P41145 whole entry): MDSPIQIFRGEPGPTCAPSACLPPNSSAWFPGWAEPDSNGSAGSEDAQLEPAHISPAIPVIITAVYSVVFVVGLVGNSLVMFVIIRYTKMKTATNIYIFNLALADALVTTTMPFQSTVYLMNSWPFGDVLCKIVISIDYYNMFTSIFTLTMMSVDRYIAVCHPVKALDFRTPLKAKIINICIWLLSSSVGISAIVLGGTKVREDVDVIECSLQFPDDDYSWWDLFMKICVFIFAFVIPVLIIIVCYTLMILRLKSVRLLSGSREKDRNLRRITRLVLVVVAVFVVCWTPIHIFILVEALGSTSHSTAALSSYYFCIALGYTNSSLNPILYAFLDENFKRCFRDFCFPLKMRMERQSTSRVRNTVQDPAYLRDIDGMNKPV

Q: `CNC1(c2ccccc2Cl)CCCCC1=O` (centres unmarked) [ketamine] was tested. Which EC50 [1] did it give?
A: The EC50 was 29 µM.

Q: What about the Ki [2] of the same compound?
A: Its Ki is 25 µM.
